Test results as given in patent publication US10844102B2, “Peptides, compositions, and methods for stimulating subcutaneous adipogenesis” (The Regents of the University of California, priority 2014, dated 2020).
“Also recorded” adds a separate entry of the source.

Key:
[1] = system: 3T3L cells; experiment: Adiponectin ELISA on supernatant medium of primed 3T3L cells; type: cell-based, mouse; settings: 10 μg/ml peptide, versus no insulin control
Experimental: 3T3L cells were cultured in T75 culture flasks, in expansion medium (Millipore Corporation), and stored in a 5% CO2 humidified incubator at 37° C. Media was changed every two days until the cells reached 80% confluency. Cells were subcultured in a 96 well plate with a seeding density of 3×10^4 cells per cm^2.
Once cells had just reached confluency, expansion media was replaced with 0.5 mL of Adipogenic Induction Media per well containing 5% serum that had been screened for an ability to maintain stem cells in an undifferentiated state (LifeTechnologies). Cells were incubated for 48 hours at 37° C., 5% CO2. The Adipogenic Induction Media contained DMEM (low glucose, Gibco) +5% serum (LifeSciences) with 0.5 mM IBMX solution, 1 μM Dexamethasone Solution, and 100 μM Indomethacin Solution (priming stimulus). After 48 hr the Adipogenic Induction media was replaced with new media containing 10 μg/ml insulin alone (positive control), or 10 μg/ml peptide (experimental conditions). Negative controls were DMEM +5% serum only. Plates were incubated for two days prior to adiponectin ELISA analyses. Peptides were added daily at 10 μg/ml throughout the remainder of the experiment.
Adiponectin present in the supernatant medium was measured using a mouse adiponectin ELISA (Novex, LifeTechnologies). Briefly, supernatant medium was collected and diluted 1:100. One hundred microliters of the diluted supernatant medium was added to each well of the ELISA plate and incubated for one hour at 37° C. Wells were washed three times with 1× wash buffer and then 100 μl of antibody was added to each well and incubated for one hour at 37° C. The wells were then washed and incubated with 100 μl detector antibody for 1 hr at 37° C. The wells were washed five times with wash buffer and 100 μl of substrate solution was added to each well and incubated for twenty minutes in the dark. The reaction was then stopped by the addition of 100 μl stop solution. Plates were read at 450 nm and concentrations of adiponectin were derived from a standard curve included in the ELISA plate.
Insulin and the KSEVSK peptide (SEQ ID NO: 7) served as positive controls. […] In FIG. 7, values marked by asterisks represent significant changes relative to the no insulin control (i.e., the negative control) using a two-tailed Student's T test, p<0.05.

[2] = system: rat mesenchymal stem cells; experiment: Assay 2: adipogenesis, Oil Red O staining (differentiation of pre-adipocytes into adipocytes); type: cell-based; settings: for adipogenic activity in Assay 2: Assay 2, Oil Red O, concentration not given; for adipogenesis quantified by Oil Red O staining, fold change relative to the negative control: Assay 2, three weeks
Experimental: Reagents: The Dexamethasone, IBMX, Insulin, and Oil Red O Solutions were the same as described above for assay 1. Indomethacin Solution contained 10 mM indomethacin in methanol.
Adipogenesis Maintenance Media was prepared as described above.
Adipogenesis Induction Media: To prepare 501.5 mL of Adipogenesis Induction Media, 50 μL of the 10 mM stock Dexamethasone Solution, 500 μL of the 0.5 M IBMX stock solution, 500 μL of the 10 mg/ml stock Insulin Solution, 5 ml of a 10 mM stock Indomethacin Solution, and 5 mL of a 100× stock solution of penicillin and streptomycin were added to 490 mL of mesenchymal stem cell expansion media.
Pre-adipocyte stem cells, bone marrow mesenchymal stem cells or fibroblasts such as dermal reticular and papillary fibroblasts were propagated using standard tissue culture methods. Cells were trypsinized to remove cells from the substratum, the trypsin was neutralized, and cells were counted using a hemocytometer. Cells were resuspended at 20,000 cells/ml in DMEM containing 10% calf serum. 1 mL of cell suspension per well was plated in a 48-well plate, with several wells left empty for blank well (blank control) staining.
Cells were incubated for 2 days overnight and had reached confluency at this point. Media was removed from each well and replaced with 0.5 ml Adipogenesis Induction Media. For negative control (no insulin, no peptide) wells, expansion medium only was used at this step and for subsequent media changes. For all media changes, media was replaced as gently as possible to avoid disturbing the monolayer.
Cells were incubated for 72 hours at 37° C., 5% CO2. Media was removed and replaced with 0.5 ml of Adipogenesis Maintenance Media containing either RHAMM antagonist peptides (experimental group) or insulin (concentration as in the Adipogenesis Induction Media and used as a positive control). Cells were incubated for at least 96 hours in this media at 37° C., 5% CO2. Media was replaced every 48 hours and experiments were terminated between seven and fourteen days after addition of insulin or peptides.
Media was removed and Oil Red O staining was performed as described above for assay 1.
Assay 1 is an assay that promotes transdifferentiation of fibroblasts into adipocytes, whereas Assay 2 promotes differentiation of multi-potential mesenchymal progenitor cells into adipocytes. Immortalized rat bone marrow mesenchymal stem cells were used for both assays. These cells contain cells of different lineages, including fibroblasts, pre-adipocytes, pre-chondrocytes and pre-osteoblasts. Thus, Assay 1 was used to promote transdifferentiation of fibroblast lineages into adipocytes and Assay 2 was used to promote differentiation of the pre-adipocytes into adipocytes.
As described in Example 1 above, the priming stimulus for Assay 1 includes IBMX (3-isobutyl-1-methylxanthine) and dexamethasone, and then insulin as the final adipogenic stimulus. The priming stimulus for assay 2 includes IBMX, dexamethasone and indomethacin, and then insulin as the final adipogenic stimulus.
Adipogenesis was quantified by Oil Red O staining. The peptide was tested at concentrations of 5 and 50 μg/ml over a period of three weeks. Cells were plated in 48-well culture plates, and the purity of the peptides was >95%. All data are presented as the fold change relative to the negative control (Ctr(−))±standard error. The KSEVSK 6-mer (SEQ ID NO: 7) was used as a positive control.

[3] = system: rat mesenchymal stem cells; experiment: Assay 1: adipogenesis, Oil Red O staining (transdifferentiation of fibroblast lineages into adipocytes); type: cell-based; settings: for adipogenesis quantified by Oil Red O staining, fold change relative to the negative control: Assay 1, three weeks
Experimental: Reagents: (1) 3-isobutyl-1-methylxanthine (IBMX) solution: 0.5M in DMSO; (2) Insulin Solution: 10 mg/mL recombinant human insulin; (3) Dexamethasone Solution in 10 mM in ethanol; (4) Oil Red O (0.36% in 60% isopropanol).
Adipogenesis Initiation Media: mesenchymal stem cell expansion media/0.5 mM IBMX/1 μM dexamethasone. Mesenchymal stem cell expansion media is commercially available from Millipore. The IBMX Solution was diluted 1:1000 and the Dexamethasone Solution was diluted 1:10,000 in expansion media containing antibiotics and antimycotics. The prepared media was stored at 4° C.
Adipogenesis Progression Media for positive control: mesenchymal stem cell expansion media/10 μg/mL insulin. The Insulin Solution was diluted 1:1000 in the expansion media and stored at 4° C.
Experimental Adipogenesis Progression Media: mesenchymal stem cell expansion media/1-100 μg/mL RHAMM antagonist peptides.
Adipogenesis Maintenance Media: mesenchymal stem cell expansion media containing antibiotics and antimycotics.
Negative Control Media: Dulbecco's Modified Eagle's Medium (DMEM)/10% normal calf serum.
Pre-adipocyte stem cells including bone marrow mesenchymal stem cells and fibroblasts were propagated using standard tissue culture methods. Cells were trypsinized to remove the cells from the substratum. The trypsin was neutralized and cells were counted using a hemocytometer. Cells were resuspended at 20,000 cells/mL in expansion media. 1 mL of cell suspension was plated per well of 48-well plate, with several wells left empty for blank well (blank control) staining.
Cells were incubated until they reached confluency. When cells were fully confluent, the expansion media was replaced with 0.5 mL of Adipogenesis Initiation Media. For negative controls (no insulin, no peptides), expansion media only was used at this step and for subsequent media changes. For all media changes, media was replaced as gently as possible to avoid disturbing the monolayer.
Cells were incubated in Adipogenesis Initiation Media for 72 hours at 37° C., 5% CO2. 0.5 mL media was then removed from each well, and replaced with 0.5 mL of either positive control or experimental Adipogenesis Progression Media per well. Cells were again incubated for 96 hours at 37° C., 5% CO2, after which time media was replaced every 48 hours with Adipogenesis Maintenance Media (0.5 mL of media was removed from each well and replaced with 0.5 mL Adipogenesis Maintenance Media per well). Media added to empty wells served as blank controls for blank well background staining. Cells were incubated in Adipogenesis Maintenance Medium for at least 96 hours at 37° C., 5% CO2 after which time media was replaced with Adipogenesis Maintenance Medium. Lipid droplets had appeared by the time Adipogenesis Maintenance Medium was initially added and continued to accumulate and increase in size for 7-14 days. Experiments were terminated between seven and fourteen days after the initial addition of Adipogenesis Maintenance Medium.
For quantification of Oil Red O staining, media was removed and cells were washed twice with PBS, using care to gently add the PBS. Cells were then fixed in 4% paraformaldehyde (0.5 mL/well) and incubated for 30 minutes. The fixation solution was then removed and wells were washed two times with 1 mL of phosphate buffered saline (PBS) and once with 1 mL Milli-Q water. 0.25 mL Oil Red O solution was added per well of 48-well plate, including to the wells lacking cells, but containing media. Cells were incubated for 15 minutes at room temperature. The staining solution was then removed and wells were washed two times with 1 mL of Milli-Q water and once with washing solution (63% isopropanol in water).
Adipogenesis was quantified using a spectrophotometer. 0.25 mL Dye Extraction Solution (isopropyl alcohol) was added per well, and the plate was set on an orbital shaker or platform rocker for 30 minutes. […]

[4] = system: adipogenesis; experiment: Adipogenic activity of peptides and peptide fragments, assay not specified; type: cell-based; settings: assay not specified
Experimental: In the second approach, a series of truncations and alanine mutagenesis on peptide B were performed in order to identify the smallest active sequence. Fragments of peptide B were prepared and assayed for adipogenesis. First, fragments corresponding to the two halves of peptide B were prepared (KLKDENS (SEQ ID NO: 8) and SQLKSEVSK (SEQ ID NO: 13)).

[5] = earlier reports, background and U.S. Pat. No. 6,271,344; cited from earlier work
[6] = system: mesenchymal stem cell; settings: commercially available mesenchymal stem cell kit; as described in WO 2014/082042; cited from earlier work

**Q.** Which “adipogenic activity in the adiponectin assay (adiponectin secretion)” value [1] does the source give for “KTSSHHV (listed as Arabidopsis thaliana)” here?
**A.** lack an ability to promote adipogenesis

**Q.** For “KTRSHHI (listed as Monodelphis domestica)”, which “adipogenic activity in Assay 2” value [2] is on record?
**A.** ablated adipogenic activity

**Q.** And the “adipogenic activity in Assay 1” value ([3]; Assay 1, Oil Red O, concentration not given)?
**A.** ablated adipogenic activity

**Q.** For KLKDENSQ (listed as Homo sapiens), which “adipogenesis quantified by Oil Red O staining, fold change relative to the negative control” value ([2]; peptide 5 μg/ml) is on record?
**A.** significant adipogenic effect

**Q.** And the “adipogenesis quantified by Oil Red O staining, fold change relative to the negative control” value ([2]; peptide 50 μg/ml)?
**A.** significant adipogenic effect

**Q.** What about the “adipogenesis quantified by Oil Red O staining, fold change relative to the negative control” value ([3]; peptide 5 μg/ml) of the same molecule?
**A.** significant adipogenic effect

**Q.** And the “adipogenesis quantified by Oil Red O staining, fold change relative to the negative control” value ([3]; peptide 50 μg/ml)?
**A.** significant adipogenic effect

**Q.** And the adipogenic activity [4]?
**A.** are adipogenic

**Q.** Which adipogenic activity [4] does the source give for LKSEVSK (listed as Homo sapiens) here?
**A.** also found to be adipogenic

**Q.** For KLKDENS (listed as Homo sapiens), which adipogenic activity [4] is on record?
**A.** did not exhibit adipogenic activity; also recorded: lack adipogenic activity

**Q.** Which “binding to hyaluronan (HA)” value [5] does the source give for STMMSRSHKTRSCHH here?
**A.** binds to HA

**Q.** For KLQEELNKV (Ovis aries), which “adipogenesis quantified by Oil Red O staining, fold change relative to the negative control” value ([2]; peptide 5 μg/ml) is on record?
**A.** only observed when a concentration of 50 μg/ml was used

**Q.** And the “adipogenesis quantified by Oil Red O staining, fold change relative to the negative control” value ([2]; peptide 50 μg/ml)?
**A.** significantly increased adipogenesis

**Q.** And the “adipogenesis quantified by Oil Red O staining, fold change relative to the negative control” value ([3]; peptide 5 μg/ml)?
**A.** significantly increased adipogenesis

**Q.** What about the “adipogenesis quantified by Oil Red O staining, fold change relative to the negative control” value ([3]; peptide 50 μg/ml) of the same molecule?
**A.** significantly increased adipogenesis

**Q.** For SQLKSEVSK (listed as Homo sapiens), which adipogenic activity [4] is on record?
**A.** found to be adipogenic

**Q.** With KTRSHHV as the molecule, how does the “adipogenic activity in Assay 2” value [2] read?
**A.** not in assay 2

**Q.** What about the “adipogenesis quantified by Oil Red O staining, fold change relative to the negative control” value ([3]; peptide 5 μg/ml) of the same molecule?
**A.** significant increase in adipogenesis

**Q.** And the adipogenic activity [4]?
**A.** has adipogenic activity; also recorded: is adipogenic

**Q.** For STMMSRSHK, which adipogenic activity [4] is on record?
**A.** found to have adipogenic activity

B1: 114 amino acid protein fragment: RHAMM carboxy-terminal sequence from mouse RHAMM produced as a recombinant protein (protein, listed as Mus musculus)
chain: LDAFEAEKQALLNEHGATQEQLNKIRDSYAQLLGHQNLKQKIKHVVKLKDENSQLKSEVSKLRSQLVKRKQNELRLQGELDKALGIRHFDPSKAFCHASKENFTPLKEGNPNCC
**Q.** Which adipogenesis [6] does the source give for B1 here?
**A.** promoted adipogenesis
